Reference: the supplement of paper PMC11061612

Key:
Gefitinib = compound: COc1cc2ncnc(Nc3ccc(F)c(Cl)c3)c2cc1OCCCN1CCOCC1 [Gefitinib]; conditions: max 10 µM
In short: (§1)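 Cancer cell lines were seeded in 1536-well plates in 7.5 μl DMEM/F12 or RPMI with 10% FBS, held 24 hours at 37°C and 5% CO2, then dosed for 72 hours (final DMSO typically 0.2%). Viability was read by CellTiter-Glo 2.0 luminescence and scaled between blank-well and DMSO-well means. The single-agent IC50 comes from dose responses fitted to a two-parameter logistic curve with a non-linear mixed effects model.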

Olaparib = compound: O=C(c1cc(Cc2n[nH]c(=O)c3ccccc23)ccc1F)N1CCN(C(=O)C2CC2)CC1 [Olaparib]; conditions: max 10 µM
In short: as §1

Taselisib = compound: Cc1nc(-c2cn3c(n2)-c2ccc(-c4cnn(C(C)(C)C(N)=O)c4)cc2OCC3)n(C(C)C)n1 [Taselisib]; conditions: max 10 µM
In short: as §1

SN-38 = compound: CCc1c2c(nc3ccc(O)cc13)-c1cc3c(c(=O)n1C2)COC(=O)[C@]3(O)CC [SN-38]; conditions: max 0.3 µM
In short: as §1

Alisertib = compound: COc1cc(Nc2ncc3c(n2)-c2ccc(Cl)cc2C(c2c(F)cccc2OC)=NC3)ccc1C(=O)O [Alisertib]; conditions: max 10 µM
In short: as §1

AZD2811 = compound: CCN(CCO)CCCOc1ccc2c(Nc3cc(CC(=O)Nc4cccc(F)c4)[nH]n3)ncnc2c1 [AZD2811]; conditions: max 1 µM
In short: as §1

AZD1390 = compound: CC(C)n1c(=O)n(C)c2cnc3cc(F)c(-c4ccc(OCCCN5CCCCC5)nc4)cc3c21 [AZD1390]; conditions: max 0.3 µM
In short: as §1

Palbociclib = compound: CC(=O)c1c(C)c2cnc(Nc3ccc(N4CCNCC4)cn3)nc2n(C2CCCC2)c1=O [Palbociclib]; conditions: max 10 µM
In short: as §1

AZD8186 = compound: C[C@@H](Nc1cc(F)cc(F)c1)c1cc(C(=O)N(C)C)cc2c(=O)cc(N3CCOCC3)oc12 [AZD8186]; conditions: max 3 µM
In short: as §1

Trametinib = compound: CC(=O)Nc1cccc(-n2c(=O)n(C3CC3)c(=O)c3c(Nc4ccc(I)cc4F)n(C)c(=O)c(C)c32)c1 [Trametinib]; conditions: max 1 µM
In short: as §1

AZD1775 = compound: C=CCn1c(=O)c2cnc(Nc3ccc(N4CCN(C)CC4)cc3)nc2n1-c1cccc(C(C)(C)O)n1 [AZD1775]
In short: as §1

AZD7648 = compound: Cc1cc2ncnn2cc1Nc1ncc2c(n1)n(C1CCOCC1)c(=O)n2C [AZD7648]; conditions: max 10 µM
In short: as §1

Crizotinib = compound: C[C@@H](Oc1cc(-c2cnn(C3CCNCC3)c2)cnc1N)c1c(Cl)ccc(F)c1Cl [Crizotinib]; conditions: max 10 µM
In short: as §1

Selumetinib = compound: Cn1cnc2c(F)c(Nc3ccc(Br)cc3Cl)c(C(=O)NOCCO)cc21 [Selumetinib]; conditions: max 10 µM
In short: as §1

Prexasertib = compound: COc1cccc(OCCCN)c1-c1cc(Nc2cnc(C#N)cn2)n[nH]1 [Prexasertib]; conditions: max 1 µM
In short: as §1

AZD4320 = compound: CN(CC[C@H](CSC1=CC=CC=C1)NC2=C(C=C(C=C2)S(=O)(=O)NC(=O)C3=CC=C(C=C3)N4CCC(CC4)[C@H](C5=CC=CC=C5C6=CC=C(C=C6)Cl)O)S(=O)(=O)C(F)(F)F)CCO [AZD4320]; conditions: max 1 µM
In short: as §1

Lapatinib = compound: CS(=O)(=O)CCNCc1ccc(-c2ccc3ncnc(Nc4ccc(OCc5cccc(F)c5)c(Cl)c4)c3c2)o1 [Lapatinib]; conditions: max 10 µM
In short: as §1

SG3199 = compound: CC1=CN2[C@@H](C1)C=NC3=CC(=C(C=C3C2=O)OC)OCCCCCOC4=C(C=C5C(=C4)N=C[C@@H]6CC(=CN6C5=O)C)OC [SG3199]; conditions: max 0.001 µM
In short: as §1

Doxorubicin = compound: COc1cccc2c1C(=O)c1c(O)c3c(c(O)c1C2=O)C[C@@](O)(C(=O)CO)C[C@@H]3O[C@H]1C[C@H](N)[C@H](O)[C@H](C)O1 [Doxorubicin]; conditions: max 1 µM
In short: as §1

AZD0156 = compound: CN(C)CCCOc1ccc(-c2ccc3ncc4c(c3c2)n(C2CCOCC2)c(=O)n4C)cn1 [AZD0156]
In short: as §1

Savolitinib = compound: C[C@@H](c1ccc2nccn2c1)n1nnc2ncc(-c3cnn(C)c3)nc21 [Savolitinib]; conditions: max 1 µM
In short: as §1

Venetoclax = compound: CC1(C)CCC(CN2CCN(c3ccc(C(=O)NS(=O)(=O)c4ccc(NCC5CCOCC5)c([N+](=O)[O-])c4)c(Oc4cnc5[nH]ccc5c4)c3)CC2)=C(c2ccc(Cl)cc2)C1 [Venetoclax]; conditions: max 1 µM
In short: as §1

Dasatinib = compound: CC1=C(C(=CC=C1)Cl)NC(=O)C2=CN=C(S2)NC3=CC(=NC(=N3)C)N4CCN(CC4)CCO [Dasatinib]; conditions: max 2 µM
In short: as §1

AZD5153 = compound: COc1nnc2ccc(N3CCC(c4ccc(OCCN5CCN(C)C(=O)[C@H]5C)cc4)CC3)nn12 [AZD5153]; conditions: max 1 µM
In short: as §1

Capivasertib = compound: C1CN(CCC1(C(=O)N[C@@H](CCO)C2=CC=C(C=C2)Cl)N)C3=NC=NC4=C3C=CN4 [Capivasertib]; conditions: max 10 µM
In short: as §1

AZD6738 = compound: C[C@@H]1COCCN1C2=NC(=NC(=C2)C3(CC3)[S@](=N)(=O)C)C4=C5C=CNC5=NC=C4 [AZD6738]; conditions: max 10 µM
In short: as §1

AZD5991 = compound: Cc1c2c(nn1C)CSCc1cc(n(C)n1)CSc1cc(c3ccccc3c1)OCCCc1c(C(=O)O)n(C)c3c-2c(Cl)ccc13 [AZD5991]; conditions: max 1 µM
In short: as §1

MK-2206 = compound: NC1(c2ccc(-c3nc4ccn5c(=O)[nH]nc5c4cc3-c3ccccc3)cc2)CCC1 [MK-2206]; conditions: max 10 µM
In short: as §1

Cell Line | IC50, cell viability 72 h (Gefitinib) [nM] | IC50, cell viability 72 h (Olaparib) [nM] | IC50, cell viability 72 h (Taselisib) [nM] | IC50, cell viability 72 h (SN-38) [nM] | IC50, cell viability 72 h (Alisertib) [nM] | IC50, cell viability 72 h (AZD2811) [nM] | IC50, cell viability 72 h (AZD1390) [nM] | IC50, cell viability 72 h (Palbociclib) [nM] | IC50, cell viability 72 h (AZD8186) [nM] | IC50, cell viability 72 h (Trametinib) [nM] | IC50, cell viability 72 h (AZD1775; max 1 µM) [nM] | IC50, cell viability 72 h (AZD7648) [nM] | IC50, cell viability 72 h (Crizotinib) [nM] | IC50, cell viability 72 h (Selumetinib) [nM] | IC50, cell viability 72 h (Prexasertib) [nM] | IC50, cell viability 72 h (AZD4320) [nM] | IC50, cell viability 72 h (Lapatinib) [nM] | IC50, cell viability 72 h (SG3199) [nM] | IC50, cell viability 72 h (Doxorubicin) [nM] | IC50, cell viability 72 h (AZD0156; max 1 µM) [nM] | IC50, cell viability 72 h (Savolitinib) [nM] | IC50, cell viability 72 h (Venetoclax) [nM] | IC50, cell viability 72 h (Dasatinib) [nM] | IC50, cell viability 72 h (AZD5153) [nM] | IC50, cell viability 72 h (Capivasertib) [nM] | IC50, cell viability 72 h (AZD6738) [nM] | IC50, cell viability 72 h (AZD5991) [nM] | IC50, cell viability 72 h (AZD1775; max 3 µM) [nM] | IC50, cell viability 72 h (AZD0156; max 3 µM) [nM] | IC50, cell viability 72 h (MK-2206) [nM]
SNU-61 (Colorectal Carcinoma) | > 10000 | > 10000 | > 10000 | > 300 | > 10000 | > 1000 | > 300 | > 10000 | > 3000 | 529 | > 1000 | > 10000 | > 10000 | > 10000 | > 1000 | > 1000 | > 10000 | > 1 | > 1000 | > 1000 | > 1000 | > 1000 | > 2000 | > 1000 | > 10000 | > 10000 | > 1000 |  |  | 
U-118-MG (Low Grade Glioma) | > 10000 | > 10000 | 6100 | 14.1 | > 10000 | > 1000 | > 300 | > 10000 | > 3000 | > 1000 |  | > 10000 | > 10000 | > 10000 | 188 | > 1000 | > 10000 | > 1 | > 1000 |  | > 1000 | > 1000 | > 2000 | > 1000 | 8880 | > 10000 | > 1000 | 2740 | > 3000 | 
MCF7 (Breast Carcinoma) | > 10000 | > 10000 | 1390 | 53.2 | > 10000 | > 1000 | > 300 | > 10000 | > 3000 | > 1000 |  | > 10000 | > 10000 | > 10000 | > 1000 | > 1000 | > 10000 | > 1 | > 1000 |  | > 1000 | > 1000 | > 2000 | 343 | 8440 | 6710 | 838 | > 3000 | > 3000 | 8680
RCC10RGB (Kidney Carcinoma) | 7990 | > 10000 | 3250 | 101 | 3460 | > 1000 | > 300 | > 10000 | 1010 | 753 |  | > 10000 | > 10000 | > 10000 | 851 | > 1000 | > 10000 | > 1 | > 1000 |  | > 1000 | > 1000 | 435 | > 1000 | > 10000 | > 10000 | > 1000 | 2620 | > 3000 | 
HCC-827 (Lung Adenocarcinoma) | 84.2 | > 10000 | 8540 | > 300 | > 10000 | > 1000 | > 300 | > 10000 | > 3000 | > 1000 |  | > 10000 | > 10000 | > 10000 | 465 | > 1000 | 3000 | > 1 | > 1000 |  | > 1000 | > 1000 | 130 | > 1000 | > 10000 | > 10000 | > 1000 | > 3000 | > 3000 | 
EFM-192A (Breast Carcinoma) | > 10000 | > 10000 | 475 | > 300 | > 10000 | > 1000 | > 300 | > 10000 | > 3000 | > 1000 |  | > 10000 | > 10000 | > 10000 | > 1000 | > 1000 | 1360 | > 1 | > 1000 |  | > 1000 | > 1000 | > 2000 | > 1000 | > 10000 | > 10000 | 706 | > 3000 | > 3000 | 
SKN-3 (Head and Neck Carcinoma) | > 10000 | > 10000 | 9180 | 251 | > 10000 | > 1000 | > 300 | > 10000 | > 3000 | > 1000 |  | > 10000 | > 10000 | > 10000 | 380 | > 1000 | > 10000 | > 1 | > 1000 |  | > 1000 | > 1000 | > 2000 | > 1000 | > 10000 | > 10000 | > 1000 | 1530 | > 3000 | > 10000
JHH-6 (Hepatocellular Carcinoma) | > 10000 | > 10000 | > 10000 | > 300 | > 10000 | > 1000 | > 300 | > 10000 | > 3000 | > 1000 |  | > 10000 | > 10000 | > 10000 | > 1000 | > 1000 | > 10000 | > 1 | > 1000 |  | > 1000 | > 1000 | > 2000 | 922 | > 10000 | > 10000 | > 1000 | > 3000 | > 3000 | 
